{"source": "patent US6998234B2", "about": "“Methods for cancer prognosis and diagnosis relating to tumor vascular endothelial cells” (Oncotech, Inc., priority 2000, dated 2006)", "key": {"endothelial cells": {"test_system": "endothelial cells", "conditions": "from Mendel et al. 2000 (SU5416) and Laird et al. 2000 (SU6668); read-out: predetermined IC50 concentration; cited from earlier work"}, "HUVEC [1]": {"test_system": "HUVEC", "assay": "HUVEC morphology by phase contrast microscopy", "assay_type": "cell-based, human", "conditions": "HUVEC on collagen I, 48 hours; 10 μM or 1 μM docetaxel, 10 μM thalidomide, FIG. 11", "experimental": "(§1) HUVEC were cultured for 48 hours on collagen I and treated with either 10 μM docetaxel, 1 μM docetaxel, or 10 μM thalidomide. The effect on cell morphology was observed by phase contrast microscopy. In addition, apoptotic HUVEC cultured on collagen in the presence of 10 μM docetaxel were stained with AnnexinV-FITC (green fluorescence) and PI (red fluorescence) and visualized with immunofluorescent photomicrography. […] An atypical pattern of Dil-ac-LDL accumulation in drug-treated cells was observed under high magnification."}, "HUVEC [2]": {"test_system": "HUVEC", "assay": "APO-DIRECT assay (late apoptosis, DNA breaks)", "assay_type": "cell-based, human", "conditions": "collagen I, 1 μM docetaxel, 48 hours, FIG. 8", "description": "The APO-DIRECT assay (Phoenix Flow Systems, San Diego, Calif.) utilizes single step fluorescent labeling and flow cytometric analysis by taking advantage of the multitude of 3′-hydroxyl termini of DNA present in apoptotic cells. One of the hallmarks of cellular self-destruction by apoptosis is the activation of nucleases that degrade the higher order chromatin structure of the DNA into fragments of 50 to 300 kilobases. These DNA fragments result in the appearance of “DNA laddering” when the DNA is analyzed by agarose gel electrophoresis. (Arends et al., 1990, Am. J. Pathol. 136:593-608). Apoptotic cells were identified by labeling the 3′-hydroxy ends of double- and single-stranded DNA breaks with fluorescent-tagged deoxyuridine triphosphate nucleotides (F-dUTP) using the enzyme deoxynucleotidyl transferase (TdT). […] The APO-DIRECT assay identified cells undergoing apoptosis at a later stage of programmed cell death than assays based on Annexin V binding.\nIn these experiments, HUVEC were incubated on collagen I for 48 hours in the presence of 1 μM docetaxel. The cells were fixed in paraformaldehyde and stored at −20° C. until use. […] The gating display was created according to Phoenix Flow protocol using Linear Red Fluorescence (DNA) on the X-axis and Log green Fluorescence (d-UTP) on the Y-axis. […]"}, "HUVEC [3]": {"test_system": "HUVEC", "assay": "HUVEC tubulogenesis on MATRIGEL", "assay_type": "cell-based, human", "conditions": "three hours after cell transfer", "description": "Functional tests were also used to characterize the differentiation status of VEC cultured in different growth environments in vitro, as previously described. (Hewett et al., 1993, In Vitro Cell Dev. Biol. 29A: 823-830; Benelli et al., 1999, Int. J. Biol Markers 14: 243-246). MATRIGEL, a three-dimensional support matrix that is composed of solubilized membranes extracted from Engelbreth-Holm-Swarm (“EHS”) mouse sarcoma cells, was used because of the ability of mammalian VEC derived from different tissue sources to form capillary-like tubules and generate branched and forked networks in this media. The major components of this matrix are ECM proteins, such as laminin, collagen IV, entactin, and heparan sulphate proteoglycan, as well as growth factors, such as bFGF and EGF. MATRIGEL has previously been used to induce and maintain differentiation of endothelial, muscle, and neuronal cells, and for the development of three-dimensional matrix and cell invasion systems in vitro. (Gargett et al., 2000, Hum. Reprod. 15:293-301; Voura et al., 1998, Microsc. Res. Tech. 43: 265-275).\nVEC were cultured both on BIOCOAT MATRIGEL matrix-coated tissue culture flasks (Becton Dickinson), and on MATRIGEL matrix prepared from pre-frozen gels that were thawed, kept at +4° C. before use and solidified at +37° C. for 3-16 hours before testing. The optimal time to detect the formation of tubules and capillary-like networks on MATRIGEL was from 3-6 hours. (Gargett et al., 2000, Hum. Reprod. 15:293-301; Voura et al., 1998, Microsc. Res. Tech. 43: 265-275). […] No viable VEC were found in MATRIGEL cultures after 48 hours."}, "[4]": {"test_system": "VEC derived from fresh tumor specimens", "assay": "Microarray analysis of drug-resistant versus drug-sensitive tumor-derived VEC sorted by Annexin V", "assay_type": "cell-based, human", "conditions": "0.1 μM docetaxel, 24 hours", "experimental": "Anti-angiogenesis agents were screened using highly purified populations of endothelial cells derived from fresh tumor specimens. 2×10^7 VEC that were sorted for the expression of CD31 and CD105 endothelial markers were exposed to 0.1 μM docetaxel or 50 μM BSO, a proprietary drug. […] After 24 hours of drug exposure in cytophobic plates, VEC were sorted under sterile conditions using the above Annexin V-flow cytometry protocol. To ensure the purity of sorted VEC, the sorted populations were reanalyzed by flow cytometry for Annexin V and PI staining, as shown in FIG. 17. The purity of the sorted VEC populations varied between 97.3% and 99.1%. Total RNA was isolated from both resistant (Annexin V−/PI−) and sensitive (Annexin V+/PI−) populations, and cDNA probes were hybridized with Research Genetics GeneFilters© microarrays containing over 40,000 known human gene sequences. In order to compare the microarray results for the drug-resistant sample to the drug-sensitive sample, FIG. 18 is a two-dimensional scatter plot constructed of intensity values from the microarrays normalized by converting to the fraction of total intensity and then log transformed, which was used to compare the microarray results for the resistant and sensitive sample. Diagonal lines were utilized that separated the genes that have more than a 2-fold difference in expression level."}, "HUVEC [5]": {"test_system": "HUVEC", "assay": "Annexin V staining test for endothelial cells undergoing apoptosis (Annexin V-FITC/PI flow cytometry)", "assay_type": "cell-based, human", "conditions": "HUVEC on collagen I, 0.0011 μM mM docetaxel, FIG. 6", "description": "Altered cell attachment and loss of membrane integrity are among the earliest morphological features of programmed cell death. Annexin V, a 35-36 kDa Ca^2+-dependent phospholipid-binding protein, has a high affinity for the membrane phospholipid phosphatidylserine, normally located on the inner leaflet of the cell membrane (Raynal et al., 1994, Biochem. et Biophys. Acta. 1197:63-93). In cells undergoing apoptosis, however, phosphatidylserine is translocated to the outer leaflet of the plasma membrane and can be detected by Annexin V labeled with fluorescent dyes, such as FITC. To distinguish truly apoptotic cells from necrotic cells, Annexin V was used in combination with PI exclusion. In this assay, HUVEC undergoing apoptosis are Annexin V-positive, PI negative, while necrotic cells are Annexin V-positive, PI-positive.\nAs an example, HUVEC cells were cultured on collagen I and treated with 0.0011 μM mM docetaxel and then stained with both Annexin V and PI. Annexin V binding and PI staining of nuclei were documented for the same cell population using the PharMingen Annexin V flow cytometry assay and two-color immunofluorescence on live HUVEC monolayers. Staining with Annexin V-FITC was visible on the membrane as green fluorescence, and PI staining was visible in the nucleus as red fluorescence. […] In a separate experiment, HUVEC cells were transferred into Ultra Low Attachment 24-well plates (Corning, Inc., Corning N.Y.) covered with a layer of hydrogel that is hydrophilic and neutrally charged. The hydrogel surface inhibits non-specific immobilization, and therefore subsequent cell attachment, because proteins and other biomolecules passively adsorb to surfaces through hydrophobic and ionic interactions. Because of the lack of appropriate ECM providing anti-apoptotic signals, HUVEC undergo rapid apoptosis under these culture conditions. For example, 24 hours after their transfer into Ultra Low Attachment plates, 61% of HUVEC cells were undergoing an (Annexin V-positive, PI-negative) apoptotic process (shown in FIG. 7)."}, "HUVEC [6]": {"test_system": "HUVEC", "assay": "Dil-ac-LDL uptake by HUVEC", "assay_type": "cell-based, human", "conditions": "HUVEC on collagen I, 48 hours, 10 μM docetaxel, FIG. 12", "description": "The uptake of Dil-ac-LDL (Biomedical Technologies, Inc., Stoughton Mass.) was utilized to identify and characterize differentiated VEC using fluorescent microscopy on live cell monolayers. After uptake, Dil-ac-LDL is degraded by lysosomal enzymes in endothelial cells, with the Dil fluorescent probe accumulating in the intracellular membrane. (Pitas et al., 1985, J. Cell. Biol. 100:103-117). Discrimination using this system is high, because no other cell type, with the exception of macrophages, is labeled to the same degree as VEC (Voura et al, 1998, Microsc. Res. Tech. 43: 265-275; Pitas et al., 1985, J. Cell Biol. 100:103-117), and macrophages can be excluded from the analysis and sorting protocols with CD45 staining. In addition, macrophages can be differentiated from VEC because the […] is more brightly labeled with Dil-ac-LDL.\nas §1"}, "[7]": {"conditions": "RESISTANT, resistant versus sensitive VEC"}, "[8]": {"conditions": "SENSITIVE, resistant versus sensitive VEC"}}}
{"smiles": "Cc1cc(C)c(/C=C2\\C(=O)Nc3ccccc32)[nH]1", "note": "[SU5416]", "values": [{"measurement": "IC50", "setting": "endothelial cells", "value": 1000, "unit": "nM"}]}
{"smiles": "Cc1[nH]c(/C=C2\\C(=O)Nc3ccccc32)c(C)c1CCC(=O)O", "note": "[SU6668]", "values": [{"measurement": "IC50", "setting": "endothelial cells", "value": 340, "unit": "nM"}]}
{"smiles": "CC(=O)O[C@@]12CO[C@@H]1C[C@H](O)[C@@]1(C)C(=O)[C@H](O)C3=C(C)[C@@H](OC(=O)[C@H](O)[C@@H](NC(=O)OC(C)(C)C)c4ccccc4)C[C@@](O)([C@@H](OC(=O)c4ccccc4)[C@H]21)C3(C)C", "note": "[docetaxel]", "values": [{"measurement": "effect on cell morphology", "setting": "HUVEC [1]", "value": "rounded and partially detached HUVEC"}, {"measurement": "HUVEC that had undergone apoptosis", "setting": "HUVEC [2]", "value": 73, "unit": "%"}, {"measurement": "tubulogenesis on MATRIGEL", "setting": "HUVEC [3]; 10 μM, FIG. 13", "value": "complete absence of VEC-like tubules"}, {"measurement": "tubulogenesis and capillary-like network formation on MATRIGEL", "setting": "HUVEC [3]; lower doses (1, 0.1, 0.01, 0.001 μM)", "value": "inhibited tubulogenesis and capillary-like network formation"}, {"measurement": "Ratio, Human HLK1 mRNA, complete cds", "setting": "[4]; [7]", "value": 3.6}, {"measurement": "Ratio, Interferon regulatory factor 5", "setting": "[4]; [7]", "value": 4.4}, {"measurement": "Ratio, Keratin, type I cytoskeletal 14", "setting": "[4]; [7]", "value": 4}, {"measurement": "Ratio, Small proline-rich protein 1B (cornifin)", "setting": "[4]; [7]", "value": 3.6}, {"measurement": "Ratio, Tuberin", "setting": "[4]; [7]", "value": 3.2}, {"measurement": "Ratio, Fibrinogen beta-chain precursor", "setting": "[4]; SENSITIVE", "value": 4.9}, {"measurement": "Ratio, Human TWIK-related acid-sensitive K + channel gene", "setting": "[4]; SENSITIVE", "value": 5.9}, {"measurement": "Ratio, Human metallothionein (MT)I-F gene", "setting": "[4]; [8]", "value": 6.2}, {"measurement": "Ratio, Human mucosal addressin cell adhesion molecule", "setting": "[4]; [8]", "value": 9.5}, {"measurement": "Ratio, Human putative fatty acid desaturase", "setting": "[4]; [8]", "value": 5.2}, {"measurement": "cells dead due to either apoptosis or necrosis", "setting": "HUVEC [5]", "value": 16, "unit": "%"}, {"measurement": "cells intact (Annexin V-negative, PI-negative)", "setting": "HUVEC [5]", "value": 80, "unit": "%"}, {"measurement": "cells undergoing apoptosis", "setting": "HUVEC [5]", "value": 3.5, "unit": "%"}, {"measurement": "Dil-ac-LDL uptake", "setting": "HUVEC [6]", "value": "very few docetaxel-treated HUVEC took up DIL-as-LDL"}]}
{"smiles": "O=C1CCC(N2C(=O)c3ccccc3C2=O)C(=O)N1", "note": "(stereo not shown) [thalidomide]", "values": [{"measurement": "effect on cell morphology", "setting": "HUVEC [1]", "value": "no effect on HUVEC morphology"}, {"measurement": "effects on HUVEC tubulogenesis on MATRIGEL", "setting": "HUVEC [3]; 10, 1, 0.1, 0.01 and 0.001 μM", "value": "No effects"}]}
